Results from US8080657B2, “Compounds of reverse turn mimetics and the use thereof” (Choongwae Pharma Corporation, priority 2008, dated 2011).
Where two headings read alike, the source gives them in different places.

System: Wnt signaling
Assay: TopFlash reporter gene bioassay in SW480 cells
Assay type: cell-based
Conditions: Homo sapiens
[1] = SW480, TopFlash reporter gene assay, inhibition of Wnt signaling, read-out: RGA, IC50 (μM) TopF
[2] = SW480, read-out: RGA, IC50 (μM) TopF

Structure (SMILES) | IC50 [1] [µM] | also measured
C=CCN1CC(=O)N2[C@@H](Cc3ccc4[nH]ncc4c3)C(=O)N(Cc3cccc4scnc34)C[C@@H]2N1C(=O)NCc1ccccc1 (racemic) [compound 237] | 46.7 ± 6.13 | –
C=CCN1CC(=O)N2[C@@H](Cc3ccc(O)cc3)C(=O)N(Cc3cccc(Br)c3)C[C@@H]2N1C(=O)NCc1ccccc1 [Compound F] | – | IC50 (SW480, 24 h, SW480 cells, 24 hours treatment, luciferase assay, read-out: IC50 for SW480 cells, TopFlash reporter gene bioassay): 0.73 ± 0.08 µM
C=CCN1CC(=O)N2[C@@H](Cc3ccc(O)cc3)C(=O)N(Cc3cccc(C(=O)NCCC)c3)C[C@@H]2N1C(=O)NCc1ccccc1 [compound 9] | – | IC50 [2]: 0.3 ± 0.02 µM
C=CCN1CC(=O)N2[C@@H](Cc3ccc(OP(=O)(O)O)cc3)C(=O)N(Cc3cccc4c3oc3ccccc34)C[C@@H]2N1C(=O)NCc1ccccc1 [compound 13] | – | IC50 [2]: 0.36 ± 0.13 µM
C=CCN1CC(=O)N2C(Cc3ccc(OP(=O)(O)O)cc3)C(=O)N(Cc3cccc4sc(N)nc34)C[C@@H]2N1C(=O)NCc1ccccc1 (stereo partly drawn) [compound 14] | – | IC50 [2]: 0.37 ± 0.07 µM
C=CCN1CC(=O)N2[C@@H](Cc3ccc(OP(=O)(O)O)cc3)C(=O)N(Cc3cccc4c(-c5ccccc5)c[nH]c34)C[C@@H]2N1C(=O)NCc1ccccc1 [compound 22] | – | IC50 [2]: 0.45 ± 0.29 µM
C=CCN1CC(=O)N2[C@@H](Cc3ccc(OP(=O)(O)O)cc3)C(=O)N(Cc3csc4cc(N)ccc34)C[C@@H]2N1C(=O)NCc1ccccc1 [compound 24] | – | IC50 [2]: 0.48 ± 0.11 µM
C=CCN1CC(=O)N2[C@@H](Cc3ccc(O)cc3)C(=O)N(Cc3ccccc3[N+](=O)[O-])C[C@@H]2N1C(=O)NCc1ccccc1 [compound 30] | 0.54 ± 0.06 | –
C=CCN1CC(=O)N2[C@@H](Cc3ccc(OP(=O)(O)O)cc3)C(=O)N(Cc3cccc(OC)c3OC)C[C@@H]2N1C(=O)NCc1ccccc1 [compound 31] | – | IC50 [2]: 0.54 ± 0.08 µM
C=CCN1CC(=O)N2[C@@H](Cc3ccc(O)cc3)C(=O)N(Cc3csc4ccc([N+](=O)[O-])cc34)C[C@@H]2N1C(=O)NCc1ccccc1 [compound 32] | 0.56 ± 0.07 | –
C=CCN1CC(=O)N2[C@@H](Cc3ccc(O)cc3)C(=O)N(Cc3cccc(-c4ccc(F)nc4)c3)C[C@@H]2N1C(=O)NCc1ccccc1 [compound 33] | 0.56 ± 0.44 | –
C=CCN1CC(=O)N2[C@@H](Cc3ccc(O)cc3)C(=O)N(Cc3cccc(-c4ccncc4)c3)C[C@@H]2N1C(=O)NCc1ccccc1 [compound 34] | 0.58 ± 0.132 | –
C=CCN1CC(=O)N2[C@@H](Cc3ccc(OP(=O)(O)O)cc3)C(=O)N(Cc3csc4ccccc34)C[C@@H]2N1C(=O)NCc1ccccc1 [compound 35] | – | IC50 [2]: 0.59 ± 0.066 µM
C=CCN1CC(=O)N2[C@@H](Cc3ccc(O)cc3)C(=O)N(Cc3cccc4c3ncn4C(=O)CN)C[C@@H]2N1C(=O)NCc1ccccc1 [compound 37] | 0.6 ± 0.13 | –
C=CCN1CC(=O)N2[C@@H](Cc3ccc(O)cc3)C(=O)N(Cc3cccc(C(=O)NC4CCCCC4)c3)C[C@@H]2N1C(=O)NCc1ccccc1 [compound 38] | 0.61 ± 0.09 | –
C=CCN1CC(=O)N2[C@@H](Cc3ccc(O)cc3)C(=O)N(Cc3cccc(-c4ccc(N)nc4)c3)C[C@@H]2N1C(=O)NCc1ccccc1 [compound 40] | 0.63 ± 0.06 | –
C=CCN1CC(=O)N2[C@@H](Cc3ccc(O)cc3)C(=O)N(Cc3ccc(F)c4scnc34)C[C@@H]2N1C(=O)NCc1ccc(Cl)c(Cl)c1 [compound 41] | 0.63 ± 0.09 | –

Structure (SMILES) | IC50 [1] [µM] | also measured
C=CCN1CC(=O)N2[C@@H](Cc3ccc(OP(=O)(O)O)cc3)C(=O)N(Cc3ccccc3SC)C[C@@H]2N1C(=O)NCc1ccccc1 [compound 42] | – | IC50 [2]: 0.66 ± 0.0079 µM
C=CCN1CC(=O)N2[C@@H](Cc3ccc(O)cc3)C(=O)N(Cc3csc4ccc(Cl)cc34)C[C@@H]2N1C(=O)NCc1ccccc1 [compound 43] | 0.66 ± 0.06 | –
C#Cc1ccc(CNC(=O)N2[C@H]3CN(Cc4ccc(F)c5scnc45)C(=O)[C@H](Cc4ccc(O)cc4)N3C(=O)CN2CC=C)cc1 [compound 44] | 0.67 ± 0.05 | –
C=CCN1CC(=O)N2[C@@H](Cc3ccc(O)cc3)C(=O)N(Cc3csc4cc(NC(=O)OC)ccc34)C[C@@H]2N1C(=O)NCc1ccccc1 [compound 45] | 0.67 ± 0.09 | –
C=CCN1CC(=O)N2[C@@H](Cc3ccc(O)cc3)C(=O)N(Cc3cccc(C(=O)OC)c3)C[C@@H]2N1C(=O)NCc1ccccc1 [compound 46] | 0.69 ± 0.15 | –
C=CCN1CC(=O)N2[C@@H](Cc3ccc(O)cc3)C(=O)N(Cc3cccc4c3ccn4S(=O)(=O)c3ccc(C)cc3)C[C@@H]2N1C(=O)NCc1ccccc1 [compound 47] | 0.69 ± 0.19 | –
C=CCN1CC(=O)N2[C@@H](Cc3ccc(O)cc3)C(=O)N(Cc3cccc(C(=O)NC)n3)C[C@@H]2N1C(=O)NCc1ccccc1 [compound 48] | 0.7 ± 0.26 | –
C=CCN1CC(=O)N2[C@@H](Cc3ccc(O)cc3)C(=O)N(Cc3cccc4[nH]cnc34)C[C@@H]2N1C(=O)NCc1ccccc1 [compound 49] | 0.71 ± 0.43 | –
C=CCN1CC(=O)N2[C@@H](Cc3ccc(NC=O)cc3)C(=O)N(Cc3cccc4scnc34)C[C@@H]2N1C(=O)NCc1ccccc1 [compound 50] | 0.72 ± 0.075 | –
C=CCN1CC(=O)N2[C@@H](Cc3ccc(O)cc3)C(=O)N(Cc3csc4cc(NCCC(C)(C)C)ccc34)C[C@@H]2N1C(=O)NCc1ccccc1 [compound 51] | 0.72 ± 0.15 | –
C=CCN1CC(=O)N2[C@@H](Cc3ccc(O)cc3)C(=O)N(Cc3cccc(Br)c3)C[C@@H]2N1C(=O)NCc1ccccc1 [compound 52] | 0.73 ± 0.09 | –
C=CCN1CC(=O)N2[C@@H](Cc3ccc(O)cc3)C(=O)N(Cc3cccc(C(=O)NCc4cccs4)c3)C[C@@H]2N1C(=O)NCc1ccccc1 [compound 53] | 0.73 ± 0.03 | –
C=CCN1CC(=O)N2[C@@H](Cc3ccc(O)cc3)C(=O)N(Cc3csc4ccc(NCc5ccccc5)cc34)C[C@@H]2N1C(=O)NCc1ccccc1 [compound 55] | 0.74 ± 0.08 | –
C=CCN1CC(=O)N2[C@@H](Cc3ccc(O)cc3)C(=O)N(Cc3cccc(C(=O)NCc4ccccc4)c3)C[C@@H]2N1C(=O)NCc1ccccc1 [compound 56] | 0.74 ± 1.46 | –
C=CCN1CC(=O)N2[C@@H](Cc3ccc(O)cc3)C(=O)N(Cc3cccc(NC=O)c3)C[C@@H]2N1C(=O)NCc1ccccc1 [compound 57] | 0.76 ± 0.12 | –
C=CCN1CC(=O)N2[C@@H](Cc3ccc(O)cc3)C(=O)N(Cc3ccccc3OC(F)F)C[C@@H]2N1C(=O)NCc1ccccc1 [compound 58] | 0.78 ± 0.13 | –
C=CCN1CC(=O)N2[C@@H](Cc3ccc(O)cc3)C(=O)N(Cc3csc4c([N+](=O)[O-])cccc34)C[C@@H]2N1C(=O)NCc1ccccc1 [compound 59] | 0.78 ± 0.15 | –

Continued by falling IC50 [1], values first:

IC50 [1] [µM] | Structure (SMILES) | also measured
0.53 ± 0.24 | C=CCN1CC(=O)N2[C@@H](Cc3ccc(OS(N)(=O)=O)cc3)C(=O)N(Cc3cccc4c(C(C)=O)c[nH]c34)C[C@@H]2N1C(=O)NCc1ccccc1 [compound 29] | –
0.52 ± 0.04 | C=CCN1CC(=O)N2[C@@H](Cc3ccc(O)cc3)C(=O)N(Cc3cccc(C(=O)NCC4CC4)c3)C[C@@H]2N1C(=O)NCc1ccccc1 [compound 25] | –
0.52 ± 0.048 | C=CCN1CC(=O)N2[C@@H](Cc3ccc(O)cc3)C(=O)N(Cc3cccc4c3oc3ccccc34)C[C@@H]2N1C(=O)NCc1ccccc1 [compound 26] | –
0.52 ± 0.09 | C=CCN1CC(=O)N2[C@@H](Cc3ccc(O)cc3)C(=O)N(Cc3cccc4c(-c5ccccc5)cn(S(=O)(=O)c5ccccc5)c34)C[C@@H]2N1C(=O)NCc1ccccc1 [compound 27] | –
0.52 ± 0.06 | C=CCN1CC(=O)N2[C@@H](Cc3ccc(O)cc3)C(=O)N(Cc3ccc(F)c(-c4cccnc4)c3)C[C@@H]2N1C(=O)NCc1ccccc1 [compound 28] | –
0.45 ± 0.05 | C=CCN1CC(=O)N2[C@@H](Cc3ccc(O)cc3)C(=O)N(Cc3csc4ccc(F)cc34)C[C@@H]2N1C(=O)NCc1ccccc1 [compound 21] | –
0.43 ± 0.08 | C=CCN1CC(=O)N2[C@@H](Cc3ccc(O)cc3)C(=O)N(Cc3cccc4c(Cl)c[nH]c34)C[C@@H]2N1C(=O)NCc1ccccc1 [compound 19] | –
0.43 ± 0.1 | C=CCN1CC(=O)N2[C@@H](Cc3ccc(O)cc3)C(=O)N(Cc3cccc4ccn(S(=O)(=O)c5ccc(Cl)cc5)c34)C[C@@H]2N1C(=O)NCc1ccccc1 [compound 20] | –
0.42 ± 0.04 | C=CCN1CC(=O)N2[C@@H](Cc3ccc(O)cc3)C(=O)N(Cc3ccccc3SC)C[C@@H]2N1C(=O)NCc1ccccc1 [compound 17] | –
0.42 ± 0.12 | C=CCN1CC(=O)N2[C@@H](Cc3ccc(O)cc3)C(=O)N(Cc3cccc(-c4cccc(NC(C)=O)c4)c3)C[C@@H]2N1C(=O)NCc1ccccc1 [compound 18] | –
0.39 ± 0.05 | C=CCN1CC(=O)N2[C@@H](Cc3ccc(O)cc3)C(=O)N(Cc3ccc(F)c(Br)c3)C[C@@H]2N1C(=O)NCc1ccccc1 [compound 16] | –
0.34 ± 0.12 | C=CCN1CC(=O)N2[C@@H](Cc3ccc(O)cc3)C(=O)N(Cc3cccc(-c4cccnc4)c3)C[C@@H]2N1C(=O)NCc1ccccc1 [compound 12] | –
0.31 ± 0.09 | C=CCN1CC(=O)N2[C@@H](Cc3ccc(O)cc3)C(=O)N(Cc3cccc4c(C#N)cn(S(=O)(=O)c5ccccc5)c34)C[C@@H]2N1C(=O)NCc1ccccc1 [compound 11] | –
0.3 ± 0.06 | C=CCN1CC(=O)N2[C@@H](Cc3ccc(O)cc3)C(=O)N(Cc3cccc4c(-c5ccccc5)c[nH]c34)C[C@@H]2N1C(=O)NCc1ccccc1 [compound 10] | –
0.26 ± 0.08 | C=CCN1CC(=O)N2[C@@H](Cc3ccc(O)cc3)C(=O)N(Cc3cccc(-c4cccnc4F)c3)C[C@@H]2N1C(=O)NCc1ccccc1 [compound 7] | –
0.18 ± 0.076 | C=CCN1CC(=O)N2[C@@H](Cc3ccc(O)cc3)C(=O)N(Cc3cccc4c(C(C)=O)cn(S(=O)(=O)c5ccc(Cl)cc5)c34)C[C@@H]2N1C(=O)NCc1ccccc1 [compound 6] | –
0.14 ± 0.025 | C=CCN1CC(=O)N2[C@@H](Cc3ccc(O)cc3)C(=O)N(Cc3cccc4c(C(=O)C5CC5)c[nH]c34)C[C@@H]2N1C(=O)NCc1ccccc1 [compound 4] | –
0.098 ± 0.014 | C=CCN1CC(=O)N2[C@@H](Cc3ccc(O)cc3)C(=O)N(Cc3cccc4c(C(C)=O)c[nH]c34)C[C@@H]2N1C(=O)NCc1ccccc1 [compound 3] | –
0.084 ± 0.016 | C=CCN1CC(=O)N2[C@@H](Cc3ccc(O)cc3)C(=O)N(Cc3cccc4c(C(C)=O)cn(S(=O)(=O)c5ccc(C)cc5)c34)C[C@@H]2N1C(=O)NCc1ccccc1 [compound 2] | –
0.081 ± 0.0086 | C=CCN1CC(=O)N2[C@@H](Cc3ccc(O)cc3)C(=O)N(Cc3cccc4c(C(=O)C5CC5)cn(S(=O)(=O)c5ccc(C)cc5)c34)C[C@@H]2N1C(=O)NCc1ccccc1 [compound 1] | –
